Reference: PubChem BioAssay (NCI)
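How tested: cells in 96-well plates exposed to compound for 48 hours at five concentrations. At the GI50, growth is halved. TGI: concentration producing complete growth inhibition.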

How the values were obtained:
Test in all cases: inhibition of tumour cell growth, NCI panel, 48 h
786-0 renal = tested on: 786-0 renal
HOP-92 NSCLC = tested on: HOP-92 NSCLC
IGROV1 ovarian = tested on: IGROV1 ovarian
MOLT-4 leukemia = tested on: MOLT-4 leukemia
SK-MEL-2 melanoma = tested on: SK-MEL-2 melanoma
SK-MEL-28 melanoma = tested on: SK-MEL-28 melanoma
HCT-15 colon = tested on: HCT-15 colon
NCI-H522 lung = tested on: NCI-H522 lung
SR leukemia = tested on: SR leukemia
BT-549 breast = tested on: BT-549 breast

| Compound | TGI (786-0 renal) | TGI (HOP-92 NSCLC) | TGI (IGROV1 ovarian) | TGI (MOLT-4 leukemia) | TGI (SK-MEL-2 melanoma) | TGI (SK-MEL-28 melanoma) | GI50 (786-0 renal) | GI50 (HCT-15 colon) | TGI (HCT-15 colon) | GI50 (IGROV1 ovarian) | GI50 (SK-MEL-28 melanoma) | TGI (NCI-H522 lung) | TGI (SR leukemia) | GI50 (BT-549 breast) | TGI (BT-549 breast) | GI50 (HOP-92 NSCLC) | GI50 (MOLT-4 leukemia) | GI50 (NCI-H522 lung) | GI50 (SK-MEL-2 melanoma) | GI50 (SR leukemia) |
| --- | --- | --- | --- | --- | --- | --- | --- | --- | --- | --- | --- | --- | --- | --- | --- | --- | --- | --- | --- | --- |
| NC1=NC(=O)C(CC(=O)Nc2ccc([N+](=O)[O-])cc2[N+](=O)[O-])S1 (centres undefined) | > 100 µM | 89.4 µM | > 100 µM | > 100 µM | > 100 µM | > 100 µM | – | – | – | – | – | – | – | – | – | – | – | – | – | – |
| c1cc[c]([Sn]([S]c2cccc3cccnc23)([c]2ccccc2)[c]2ccccc2)cc1 | 0.0758 µM | – | 0.351 µM | – | – | 0.15 µM | 0.0234 µM | 0.0196 µM | 0.0467 µM | 0.0943 µM | 0.0364 µM | – | – | – | – | – | – | – | – | – |
| CC1(C)CCc2cc3c(cc2O1)OCCC3=O | > 100 µM | > 100 µM | > 100 µM | > 100 µM | – | – | – | – | > 100 µM | – | – | > 100 µM | > 100 µM | – | – | – | – | – | – | – |
| c1ccc2c(c1)N=C(c1cccc3ccccc13)CC(c1cccc3ccccc13)S2 (centres undefined) | 13.5 µM | – | 19.7 µM | 5.15 µM | 33 µM | 25.9 µM | – | – | 22.5 µM | – | – | 8.44 µM | 4.89 µM | – | – | – | – | – | – | – |
| CCOC(=O)Cc1nc(/C(C#N)=C/c2ccco2)[nH]c(=O)c1C#N | > 100 µM | > 100 µM | > 100 µM | > 100 µM | > 100 µM | – | – | – | > 100 µM | – | – | > 100 µM | > 100 µM | – | – | – | – | – | – | – |
| O=C(N/N=C/c1ccc(Cl)cc1Cl)c1ccccc1Nc1cccc(C(F)(F)F)c1 | 31 µM | 3.57 µM | – | 40 µM | 10.7 µM | > 100 µM | 6.74 µM | 30.5 µM | > 100 µM | – | 28.8 µM | 20.7 µM | – | 3.84 µM | 32.5 µM | 1.5 µM | 4.22 µM | 3.34 µM | 2.76 µM | – |
| C=C(C)[C@@H]1CC[C@@]2(C(=O)O)CC[C@]3(C)C(CCC4[C@@]5(C)CCC(OS(=O)(=O)c6ccccc6)C(C)(C)C5CC[C@]43C)C12 (some centres undefined) | 19 µM | 16.2 µM | 31.2 µM | – | 16.3 µM | 22.4 µM | 4.73 µM | 2.93 µM | 19.9 µM | 10.4 µM | 9.9 µM | 13.2 µM | – | 3.17 µM | 18.7 µM | 2.47 µM | – | 2.36 µM | 4.4 µM | – |
| Nc1ccc(SC23CC4CC(CC(C4)C2)C3)cc1 | > 100 µM | – | > 100 µM | – | > 100 µM | > 100 µM | – | – | > 100 µM | – | – | > 100 µM | > 100 µM | – | > 100 µM | – | – | – | – | – |
| CC(=O)c1c(C)n([O-])c2cc(C)c(C)cc2[n+]1=O | > 100 µM | – | > 100 µM | > 100 µM | > 100 µM | > 100 µM | – | – | > 100 µM | – | – | > 100 µM | – | – | – | – | – | – | – | – |
| O=C1N[C@@H](O)[C@@H]2ON=C(c3ccccc3)[C@H]12 | > 100 µM | > 100 µM | > 100 µM | > 100 µM | > 100 µM | > 100 µM | – | – | > 100 µM | – | – | – | > 100 µM | – | – | – | – | – | – | – |
| CN(C)c1nc(-c2cccs2)n2nc(-c3ccc(Cl)cc3)cc2n1 | > 100 µM | – | > 100 µM | > 100 µM | > 100 µM | > 100 µM | 3.93 µM | > 100 µM | > 100 µM | 5.28 µM | > 100 µM | > 100 µM | > 100 µM | 62.8 µM | > 100 µM | – | > 100 µM | > 100 µM | 9.03 µM | > 100 µM |
| COc1cc(/C=C\c2ccc(O)cc2)cc(OC)c1OC | > 100 µM | – | > 100 µM | > 100 µM | > 100 µM | 9.61 µM | – | – | > 100 µM | – | – | > 22.4 µM | – | – | – | – | – | – | – | – |
| Clc1ccc(CNc2nc3ccccc3nc2-c2cccs2)c(Cl)c1 | > 100 µM | 76.6 µM | – | > 100 µM | > 100 µM | > 100 µM | – | – | > 100 µM | – | – | – | > 100 µM | – | – | – | – | – | – | – |
| CC(=O)OCCOCBr | > 100 µM | > 100 µM | > 100 µM | – | > 100 µM | > 100 µM | – | – | > 100 µM | – | – | > 100 µM | – | – | – | – | – | – | – | – |
| CC1=Nc2c(ccc3c2C(=O)c2ccccc2C3=O)NC(c2ccncc2)C1 (centres undefined) | > 100 µM | > 100 µM | > 100 µM | > 100 µM | > 100 µM | > 100 µM | > 100 µM | – | > 100 µM | – | > 100 µM | > 100 µM | – | – | – | > 100 µM | – | – | > 100 µM | > 100 µM |
| CC(O)CN1C(=O)NC(Cc2ccccc2)C1=O (centres undefined) | > 100 µM | > 100 µM | – | – | > 100 µM | > 100 µM | – | – | – | – | – | > 100 µM | > 100 µM | – | – | – | – | – | – | – |
| C[C@H]1CCC/C=C/[C@@H]2C[C@H](N)C[C@H]2[C@H](O)/C=C/C(=O)O1 | > 100 µM | > 100 µM | > 100 µM | > 100 µM | > 100 µM | > 100 µM | > 100 µM | > 100 µM | > 100 µM | > 100 µM | > 100 µM | > 100 µM | > 100 µM | – | – | > 100 µM | 77.3 µM | > 100 µM | > 100 µM | 74 µM |
| CN(C)C(=S)/N=c1\ss/c(=N\S(=O)(=O)c2ccccc2)n1-c1ccccc1 | > 100 µM | 67 µM | > 100 µM | > 100 µM | > 100 µM | > 100 µM | – | – | > 100 µM | – | – | > 100 µM | – | – | – | – | – | – | – | – |
| Clc1cc(Cl)c2c(Cl)cc(Cl)c3c2c1N=S=N3 | > 100 µM | > 100 µM | > 100 µM | > 100 µM | > 100 µM | > 100 µM | – | – | > 100 µM | – | – | > 100 µM | – | – | – | – | – | – | – | – |
| CC(C)(C)C1(O)Cc2ccccc2C(=O)O1 (centres undefined) | > 100 µM | > 100 µM | > 100 µM | > 100 µM | > 100 µM | > 100 µM | – | – | > 100 µM | – | – | > 100 µM | > 100 µM | – | – | – | – | – | – | – |
| CN1CCN(C)C1c1cccc(C2N(C)CCN2C)c1 | > 100 µM | > 100 µM | > 100 µM | > 100 µM | > 100 µM | > 100 µM | – | – | > 100 µM | – | – | > 100 µM | – | – | – | – | – | – | – | – |
| C=CC(=O)N1CCN(c2ncnc3c(F)c(-c4c(O)cccc4F)c(Cl)cc23)CC1 | 25.4 µM | 33.6 µM | 24.8 µM | 56.9 µM | 35 µM | 26 µM | 11.4 µM | 10 µM | 27 µM | 11.6 µM | 13.3 µM | 35.1 µM | – | 3.87 µM | 17.3 µM | 12.8 µM | 7.04 µM | 15.6 µM | 15 µM | – |
